According to PubChem BioAssay (NCI):
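Cells were grown in 96-well plates and exposed to each compound for 48 hours at five concentrations; endpoints were interpolated linearly between bracketing concentrations, or set to the highest concentration if not reached. GI50 = concentration required for 50% inhibition of growth. The concentration for full growth arrest is given as TGI.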

Legend:
Assay in all cases: NCI anticancer screen, dose series, 48 h
[1] = system: A498 renal
[2] = system: LOX IMVI melanoma
[3] = system: HL-60(TB) leukemia
[4] = system: ACHN renal
[5] = system: MDA-MB-231 breast
[6] = system: SF-268 CNS
[7] = system: UACC-257 melanoma
[8] = system: RPMI-8226 leukemia
[9] = system: HOP-92 NSCLC
[10] = system: NCI-H226 lung
[11] = system: TK-10 renal
[12] = system: HCC-2998 colon
[13] = system: SF-539 CNS
[14] = system: SW-620 colon
[15] = system: A549 NSCLC
[16] = system: HCT-15 colon
[17] = system: BT-549 breast
[18] = system: SK-MEL-2 melanoma
[19] = system: MOLT-4 leukemia
[20] = system: CCRF-CEM leukemia
[21] = system: SK-MEL-5 melanoma
[22] = system: SF-295 CNS
[23] = system: MCF7 breast
[24] = system: HCT-116 colon
[25] = system: SNB-19 CNS
[26] = system: T-47D breast
[27] = system: UACC-62 melanoma
[28] = system: OVCAR-3 ovarian
[29] = system: MDA-MB-435
[30] = system: SNB-75 CNS
[31] = system: UO-31 renal
[32] = system: U251 CNS
[33] = system: EKVX NSCLC
[34] = system: OVCAR-4 ovarian
[35] = system: 786-0 renal
[36] = system: HT29 colon
[37] = system: NCI-H460 lung
[38] = system: OVCAR-8 ovarian
[39] = system: SR leukemia
[40] = system: RXF 393 renal
[41] = system: COLO 205 colon
[42] = system: NCI-H522 lung
[43] = system: NCI/ADR-RES ovarian
[44] = system: HS 578T breast
[45] = system: M14 melanoma
[46] = system: IGROV1 ovarian
[47] = system: SK-MEL-28 melanoma
[48] = system: CAKI-1 renal
[49] = system: HOP-62 NSCLC
[50] = system: SK-OV-3 ovarian
[51] = system: NCI-H23 lung
[52] = system: OVCAR-5 ovarian
[53] = system: SN12C renal
[54] = system: PC-3 prostate
[55] = system: KM12 colon
[56] = system: DU-145 prostate
[57] = system: K-562 leukemia
[58] = system: MALME-3M melanoma
[59] = system: MDA-N

For `C=C1C(=O)OC2CC3(C)OC3C3OC3C3=CC(OC3=O)C12` (stereo not drawn), the GI50 [1] was 15.8 µM, the TGI [1] was 30.5 µM and the GI50 [2] was 4.18 µM. For the same compound, the TGI [2] was 12.1 µM, the GI50 [3] was 2.13 µM and the TGI [3] was 4.83 µM. The GI50 [4] was 1.81 µM, the TGI [4] was 3.35 µM and the GI50 [5] was 8.33 µM. It also gave a TGI [5] of 22.7 µM, a GI50 [6] of 19 µM and a TGI [6] of 38 µM. The GI50 [7] was 1.92 µM, the TGI [7] was 4.03 µM and the GI50 [8] was 7.34 µM. The TGI [8] was 33.2 µM, the GI50 [9] was 2.01 µM and the TGI [9] was 4.77 µM. It also gave a GI50 [10] of 8.82 µM, a TGI [10] of 28.5 µM and a GI50 [11] of 1.91 µM. It also gave a TGI [11] of 3.39 µM, a GI50 [12] of 17.4 µM and a TGI [12] of 33.9 µM. It also gave a GI50 [13] of 4.43 µM, a TGI [13] of 16.7 µM and a GI50 [14] of 1.35 µM. For the same compound, the TGI [14] was 3.04 µM, the GI50 [15] was 21.3 µM and the TGI [15] was 46.8 µM. It also gave a GI50 [16] of 2.4 µM, a TGI [16] of 6.45 µM and a GI50 [17] of 8.33 µM. The TGI [17] was 21.5 µM, the GI50 [18] was 15.4 µM and the TGI [18] was 36.4 µM. The GI50 [19] was 3.25 µM, the TGI [19] was 9.75 µM and the GI50 [20] was 1.05 µM. The TGI [20] was 3.2 µM, the GI50 [21] was 14.9 µM and the TGI [21] was 30.3 µM. The GI50 [22] was 37.4 µM, the TGI [22] was over 100 µM and the GI50 [23] was 6.05 µM. It also gave a TGI [23] of 27.6 µM, a GI50 [24] of 1.67 µM and a TGI [24] of 3.15 µM. It also gave a GI50 [25] of over 100 µM, a TGI [25] of over 100 µM and a GI50 [26] of 1.17 µM. It also gave a TGI [26] of 4.45 µM, a GI50 [27] of 9.11 µM and a TGI [27] of 22.3 µM. For the same compound, the GI50 [28] was 2.03 µM, the TGI [28] was 3.61 µM and the GI50 [29] was 9.57 µM. The TGI [29] was 29.3 µM, the GI50 [30] was 14.5 µM and the TGI [30] was 38.6 µM. For the same compound, the GI50 [31] was 2.84 µM, the TGI [31] was 7.54 µM and the GI50 [32] was 17.7 µM. It also gave a TGI [32] of 35 µM, a GI50 [33] of 19 µM and a TGI [33] of 41.9 µM. It also gave a GI50 [34] of 2.14 µM, a TGI [34] of 4.86 µM and a GI50 [35] of 17.2 µM. The TGI [35] was 33.8 µM, the GI50 [36] was 3.21 µM and the TGI [36] was 10.8 µM. For the same compound, the GI50 [37] was 19.9 µM, the TGI [37] was 41.3 µM and the GI50 [38] was 3.32 µM. For the same compound, the TGI [38] was 19.3 µM, the GI50 [39] was 2.82 µM and the TGI [39] was 7.81 µM. The GI50 [40] was 1.81 µM, the TGI [40] was 3.66 µM and the GI50 [41] was 0.539 µM. For the same compound, the TGI [41] was 1.25 µM, the GI50 [42] was 0.299 µM and the TGI [42] was 0.904 µM. For the same compound, the GI50 [43] was 27.2 µM, the TGI [43] was 69.3 µM and the GI50 [44] was 19.3 µM. For the same compound, the TGI [44] was 68.7 µM, the GI50 [45] was 8.75 µM and the TGI [45] was 24.2 µM. The GI50 [46] was 21.2 µM, the TGI [46] was 40.7 µM and the GI50 [47] was 5.75 µM. It also gave a TGI [47] of 12.5 µM, a GI50 [48] of 1.48 µM and a TGI [48] of 3 µM. For the same compound, the GI50 [49] was 15.2 µM, the TGI [49] was 41.5 µM and the GI50 [50] was 25.4 µM. The TGI [50] was over 57 µM, the GI50 [51] was 13.4 µM and the TGI [51] was 32.6 µM. For the same compound, the GI50 [52] was 9.05 µM, the TGI [52] was 25.7 µM and the GI50 [53] was 11.3 µM. It also gave a TGI [53] of 25.2 µM, a GI50 [54] of 15.9 µM and a TGI [54] of 32.9 µM. For the same compound, the GI50 [55] was 18.7 µM, the TGI [55] was 37.7 µM and the GI50 [56] was 16.6 µM. For the same compound, the TGI [56] was 34.3 µM, the GI50 [57] was 2.54 µM and the TGI [57] was 6.85 µM. The GI50 [58] was 2.12 µM and the TGI [58] was 4.19 µM.
Work on `ClCC1(CCl)COC1` yielded a TGI [1] of over 100 µM, a TGI [2] of over 100 µM and a TGI [3] of over 100 µM. It also gave a TGI [4] of over 100 µM, a TGI [5] of over 100 µM and a TGI [6] of over 100 µM. For the same compound, the TGI [7] was over 100 µM, the TGI [9] was over 100 µM and the TGI [10] was over 100 µM. It also gave a TGI [11] of over 100 µM, a TGI [12] of over 100 µM and a TGI [14] of over 100 µM. It also gave a TGI [15] of over 100 µM, a TGI [16] of over 100 µM and a TGI [19] of over 100 µM. The TGI [20] was over 100 µM, the TGI [21] was over 100 µM and the TGI [22] was over 100 µM. For the same compound, the TGI [23] was over 100 µM, the TGI [24] was over 100 µM and the TGI [25] was over 100 µM. The TGI [26] was over 100 µM, the TGI [28] was over 100 µM and the TGI [29] was over 100 µM. For the same compound, the TGI [30] was over 100 µM, the TGI [31] was over 100 µM and the TGI [32] was over 100 µM. For the same compound, the TGI [34] was over 100 µM, the TGI [36] was over 100 µM and the TGI [37] was over 100 µM. It also gave a TGI [38] of over 100 µM, a TGI [39] of over 100 µM and a TGI [59] of over 100 µM. It also gave a TGI [40] of over 100 µM, a TGI [41] of over 100 µM and a TGI [42] of over 100 µM. For the same compound, the TGI [43] was over 100 µM, the TGI [44] was over 100 µM and the TGI [45] was over 100 µM. The TGI [47] was over 100 µM, the TGI [50] was over 100 µM and the TGI [51] was over 100 µM. It also gave a TGI [53] of over 100 µM, a TGI [54] of over 100 µM and a TGI [55] of over 100 µM. It also gave a TGI [56] of over 100 µM and a TGI [57] of over 100 µM.
